# From patent publication US12364681B2, “Combined MAPK and NAMPT inhibition for treatment of neuron degeneration” (The Johns Hopkins University, priority 2021, dated 2025)
# Columns and labels:
# [1] = tested on: axotomized murine DRG axons; experiment: Axonal degeneration (degeneration index) of transected axons; type: cell-based
# Protocol: (§1) The role of the DLK/LZK MAPK pathway in regulating NAD and SARM1 pathways of axonal degeneration was established. Its role in regulating levels of the NAD-synthesizing enzyme NMNAT2 after injury was explored by treating murine DRG axons with the DLK/LZK inhibitor GNE-3511 after axotomy.
# To assess the therapeutic potential of post-axotomy MAPK inhibition, axons were treated with GNE-3511 at different time points before or after axotomy (2 h pre-treatment, immediately after axotomy, 0 h, or 2 and 4 hours post-injury).
# Due to the different mechanism of action of MAPK and NAMPT inhibition, therapeutic synergy was further tested by treating axotomized axons with the MAPK inhibitor GNE at the time of injury and the NAMPT inhibitor FK866 at different time points (2, 4, 6 or 8 hours post injury).
# Transected axons were treated with the NAMPT inhibitor FK866 after injury and NaR was added concurrently or at 3, 6, 9, or 24 hours post axotomy. Statistical analysis of degeneration index was performed by two-way ANOVA for the effect of time (F(4,32)=62.77, p<0.0001), treatment (F(5,8)=17.05, p=0.0004), and their interactions (F(20,32)=16.82, p<0.0001) with Holm-Šidák's multiple comparisons. […] See FIG. 15 (error bars indicate +/−1 SEM).
# Transected axons were treated at the time of injury with the DLK inhibitor GNE-3511 or vehicle (DMSO) and with the combination of FK866/NaR either at the time of injury or with an 8-hour delay. […] Statistical analysis of degeneration index was performed by two-way ANOVA for the effect of time (F(2.143, 17.15)=49.43, p<0.0001), treatment (F(3,8)=9.58, p=0.005), and their interactions (F(18,48)=13.99, p<0.0001) with Holm-Šidák's multiple comparisons. […] See FIG. 16B (error bars indicate +/−1 SEM).
# [2] = tested on: NAD+ pathway metabolites (NMN, NAD+, cADPR, Nam) in transected axons; experiment: Metabolite analysis of distal axons 8 hours post axotomy; type: cell-based
# Protocol: Axons were transected and treated with vehicle (DMSO), the NAMPT inhibitor FK866, or FK866+NaR. Axons were collected at 8 hours post axotomy for metabolite analysis. […] Statistically significant changes between treated and untreated transected axons were analyzed with one-way ANOVA and Holm-Šidák's multiple comparisons; *=p<0.05, **=p<0.01, ***=p<0.001, #=p<0.0001. Error bars indicate +/−1 SEM.
# Relative changes in protein-normalized levels of metabolites in distal axons were measured at 8 hours following transection and treatment at the time of injury with the MAPK inhibitor GNE-3511, the NAMPT inhibitor FK866 in combination with NaR, or with the three compounds together.
# [3] = tested on: retinal ganglion cells (RGCs); experiment: Impact acceleration (IA) TBI model: RGC survival, SNCG staining of retinal whole-mounts; type: in vivo, mice; conditions: intraperitoneal 60 mg/kg, treatment 21 days after IA; vehicle 1500 cells/mm2; p<0.05
# Description: Experimental subjects and IA procedures Eight-week-old male C57BL/6 J wild-type mice and transgenic Dlk^fl/fl and Dlk^fl/flLzk^fl/fl mice were subjected to IA or sham injury. Male mice were chosen such as to avoid the confounding effects of sex hormones on injury outcomes. Wild-type mice and founders were purchased from Charles River Laboratories (Wilmington, MA). Animals were housed in a vivarium with a 12-h light/12-h dark cycle and given ad libitum access to food and water. All animal handling as well as surgical and postoperative procedures were carried out according to protocols approved by the Animal Care and Use Committee of the Johns Hopkins Medical Institutions.
# Impact acceleration injury was performed with height weight settings generating kinetic energy of 0.45-0.5 Jupon impact, essentially as described (FIG. 21). Immediately prior to injury, the cranium was exposed and a 5 mm-thick stainless-steel disc was glued onto the skull midway between bregma and lambda sutures. Surgical procedures and injury were performed under aseptic conditions with gas anesthesia (isoflurane:oxygen:nitrous oxide=1:33:66). Immediately after injury the disc was removed the skull was checked under the surgical microscope for skull fractures. The rare animals with skull fractures were excluded from further study because such events introduce injuries variables that cannot be easily controlled. […]
# [4] = in vivo; cited from earlier work
# [5] = tested on: JNK, SCG10, NMNAT2 and α-Spectrin in murine DRG axons; experiment: Western blot of distal axons after axotomy; type: cell-based
# Protocol: as §1
# Western blot analysis of distal axons was performed at 4 and 8 hours after transection and treatment with the DLK inhibitor GNE3511 or vehicle (DMSO).
# [6] = treatment immediately after axotomy
# [7] = GNE vs FK+NaR and vs FK+NaR+GNE
smiles,measurement,setting,value
O=C(/C=C/c1cccnc1)NCCCCC1CCN(C(=O)c2ccccc2)CC1 [FK866],protection from axonal degeneration,"[1]; in the absence of GNE-3511, added 2, 4, 6 or 8 hours post injury",provided protection especially when added at 2 hours
same,protection from axonal degeneration,"[1]; with GNE-3511 at the time of injury, FK-866 added 2, 4, 6 or 8 hours post injury","enhanced at 2, 4 and 6 hours post injury"
same,NAD+ degrading activity (cADPR/NAD+) relative to vehicle,[2],suppressed the NAD+ degrading activity
same,NAD+/NMN ratio compared to vehicle,[2],increases
same,NMN/Nam ratio compared to vehicle,[2],reductions
same,cADPR levels relative to vehicle,[2],only the combined treatment suppressed cADPR levels
same,NAD+ levels compared to vehicle treated transected axons,[2]; treatment at time of injury,protects NAD+ levels
same,NMN levels compared to vehicle treated transected axons,[2]; treatment at time of injury,suppressed NMN
CCN(CC)CCNC(=O)c1c(C)[nH]c(/C=C2\C(=O)Nc3ccc(F)cc32)c1C [sunitinib],number of surviving RGCs,[3],~2300 cells/mm2
same,CNS penetration,[4],penetrates the CNS
N#Cc1ccnc(Nc2cc(C3CCN(C4COC4)CC3)cc(N3CCC(F)(F)C3)n2)c1 [GNE-3511],injury associated degradation of SCG10,[5]; 4 and 8 hours after transection,suppressed the injury associated degradation of SCG10
same,phosphorylation of JNK,"[5]; 4 hours after transection, vs vehicle (DMSO), n=3",suppressed phosphorylation of JNK
same,injury associated degradation of spectrin (p150 fragment to total spectrin),[5]; 8 hours after transection,suppressed
same,degradation of NMNAT2 between 4 and 8 hours post-axotomy,[5]; significantly degraded in vehicle treated axons,not in the presence of GNE
same,calpain-mediated degradation of α-Spectrin,[5]; [6],ameliorated the calpain-mediated degradation
same,degradation of NMNAT2,[5]; [6],reduced the degradation
same,phosphorylation of SCG10,[5]; [6],reduced phosphorylation
same,phosphorylation of the downstream JNKs,[5]; [6],reduced phosphorylation
same,protection from axonal degeneration,[1]; applied before (2 h pre-treatment) or immediately following injury (0 h),Significant protection
same,protection from axonal degeneration,[1]; more delayed regimes (2 and 4 hours post-injury),lesser protection
same,"cADPR/NAD+ ratio, difference vs FK+NaR",[2],significant differences
same,"NAD+/NMN ratio, difference between treatment groups",[2]; [7],significant differences
same,"Nam/NAD+ ratio, difference between treatment groups",[2]; [7],significant differences
same,NAD+ levels compared to FK+NaR or the triple combination,[2]; treatment at time of injury,greater protection of NAD+ levels
"NC(=O)c1ccc[n+]([C@@H]2O[C@H](CO)[C@@H](O)[C@H]2O)c1 [NaR, nicotinamide riboside]",axon protection (degeneration index) compared to FK866 alone,"[1]; NaR added 3, 6 or 9 hours post-axotomy in the presence of FK866, up to 4 days post-injury, p<0.0001",significantly protected axons
same,axon protection (degeneration index) compared to FK866 alone,[1]; NaR added at 24 hours in the presence of FK866,no additive effect
same,delay of NaR supplementation after axotomy with minimal and/or no loss of efficacy in suppressing axon fragmentation,[1]; in the presence of FK866 given after injury,up to 9 hours
